Test systems include A549; CAKI-1; HCT-116; HCT-15; HL-60; IGROV-1; KM12; M14; Malme-3M; NCI-H23; NCI/ADR-RES; RPMI-8226; SF-268; SF-295; SK-MEL-5; SK-OV-3; SNB-75; SR; T47D; UACC-257.
Assay in all cases: NCI-60 cell line screen, 48 h

Here are results for ten compounds from ChEMBL document CHEMBL1201862, “PubChem BioAssay data set” (2004).

SMILES strings stand for the structures.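 Assay format: 96-well plates, 48-hour exposure. Abbreviation: GI50, concentration required for 50% inhibition of growth.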 Calls of active or inactive are those of the source. Rule as the data show it: active = GI50 up to about 1.1 µM and inactive = higher. A value given as a limit tells only on which side of the number the result lay.

Take `COC(=O)C(Cc1c[nH]c2ccccc12)NP(=O)(O)OCC1OC(n2cc(I)c(=O)[nH]c2=O)CC1O` (stereo not given): the GI50 was > 100 µM (inactive) in the assay with A549; > 100 µM (inactive) in the assay with CAKI-1; > 100 µM (inactive) in the assay with HCT-116; > 100 µM in the assay on HCT-15; > 100 µM (inactive) in the assay with HL-60; > 100 µM (inactive) in the assay on IGROV-1. In addition, the GI50 in the assay with KM12, with M14, with Malme-3M, with NCI-H23, in the assay on NCI/ADR-RES and with RPMI-8226 was > 100 µM (inactive) in each case. Also, the GI50 with SF-268, in the assay with SF-295, in the assay on SK-MEL-5, with SK-OV-3, in the assay on SNB-75 and with SR was > 100 µM (inactive) in each case. The GI50 in the assay with T47D and in the assay on UACC-257 was > 100 µM (inactive) throughout.
Take `COc1ccc(N2CCN(c3ccc4c(c3)NCC(=O)N4)CC2)cc1`: the GI50 with A549 is 66.2 µM (inactive); in the assay with CAKI-1 it was 64.4 µM (inactive); in the assay with HCT-116 it was 42.5 µM (inactive); in the assay on HCT-15, 49.5 µM; with HL-60, 17.1 µM (inactive); in the assay with IGROV-1, 45.8 µM (inactive). In addition, the GI50 with KM12 is 21.3 µM (inactive); in the assay on M14 it was 52.5 µM (inactive); in the assay with Malme-3M, 23.1 µM (inactive); with NCI-H23, 60.7 µM (inactive); with NCI/ADR-RES, 21.9 µM (inactive); with RPMI-8226, 21.4 µM (inactive). Moreover, the GI50 was 74.1 µM (inactive) in the assay on SF-268; 69.2 µM (inactive) in the assay with SF-295; 42.8 µM (inactive) in the assay with SK-MEL-5; 91.6 µM (inactive) in the assay on SK-OV-3; 26.9 µM (inactive) in the assay on SNB-75; 9.75 µM (inactive) with SR. For the same compound, the GI50 was 15.4 µM (inactive) with T47D and 95.5 µM (inactive) in the assay with UACC-257.
For `CSc1ccc(NC(=O)C2CCCCC2C(=O)O)cc1` (stereo not given), the GI50 with A549 was > 100 µM (inactive); in the assay with CAKI-1, > 100 µM (inactive); in the assay on HCT-116 it was > 100 µM (inactive); with HCT-15 it was > 100 µM; in the assay on HL-60, > 100 µM (inactive); with IGROV-1 it was > 100 µM (inactive). Moreover, the GI50 in the assay with KM12, in the assay on M14, in the assay with Malme-3M, in the assay with NCI-H23, with NCI/ADR-RES and in the assay with RPMI-8226 was > 100 µM (inactive) each time. The GI50 in the assay on SF-268, in the assay with SF-295, in the assay with SK-MEL-5, in the assay on SK-OV-3, in the assay with SNB-75 and with SR was > 100 µM (inactive) throughout. Further, the GI50 in the assay with T47D and in the assay on UACC-257 was > 100 µM (inactive) in each case.
For `CCCCC1C(=O)N(c2ccc(S(=O)(=O)Nc3ccccn3)cc2)N(c2ccc(O)c(C(=O)O)c2)C1=O` (stereo not given), the GI50 in the assay with A549 is > 100 µM (inactive); in the assay with CAKI-1 it was > 100 µM (inactive); with HCT-116, > 100 µM (inactive); in the assay on HCT-15, > 100 µM; with HL-60, > 100 µM (inactive); in the assay with IGROV-1, > 100 µM (inactive). In addition, the GI50 in the assay on KM12, in the assay on M14, with Malme-3M, in the assay with NCI-H23, with NCI/ADR-RES and with RPMI-8226 was > 100 µM (inactive) throughout. Also, the GI50 in the assay with SF-268, with SF-295, with SK-MEL-5, with SK-OV-3, with SNB-75 and with SR was > 100 µM (inactive) throughout. In addition, the GI50 in the assay with T47D and in the assay on UACC-257 was > 100 µM (inactive) throughout.
Turning to `COc1cc(O)c2c(c1)OCC(Cc1ccc(O)cc1)C2=O` (stereo not given), the GI50 in the assay with A549 was > 100 µM (inactive); in the assay with CAKI-1 it was 68.5 µM (inactive); in the assay on HCT-116, > 100 µM (inactive); in the assay with HCT-15 it was 94.8 µM; with HL-60 it was > 100 µM (inactive); in the assay on IGROV-1 it was > 100 µM (inactive). Besides, the GI50 in the assay with KM12 was > 100 µM (inactive); with M14, > 100 µM (inactive); in the assay with Malme-3M, > 100 µM (inactive); in the assay with NCI-H23 it was > 100 µM (inactive); in the assay with NCI/ADR-RES, > 100 µM (inactive); with RPMI-8226, 65.5 µM (inactive). In addition, the GI50 in the assay on SF-268 is 80.5 µM (inactive); with SF-295, 51.1 µM (inactive); in the assay on SK-MEL-5 it was 44.4 µM (inactive); in the assay on SK-OV-3, > 100 µM (inactive); in the assay on SNB-75, 74.3 µM (inactive); in the assay with SR, 55.8 µM (inactive). Further, the GI50 with T47D is 45.4 µM (inactive); with UACC-257, > 100 µM (inactive).
`C=CCNC1=C2C[C@@H](C)C[C@@H](OC)C(OC(=O)CCCN(C)C)[C@H](C)/C=C(\C)[C@@H](OC(N)=O)[C@H](OC)/C=C\C=C(/C)C(=O)NC(=CC1=O)C2=O` (stereo not given in full): the GI50 with A549 is 3.85 µM (inactive); in the assay on CAKI-1 it was 12.4 µM (inactive); with HCT-116, 7.13 µM (inactive); with HCT-15 it was 6.32 µM; with HL-60, 5.51 µM (inactive); in the assay on IGROV-1, 8.95 µM (inactive). In addition, the GI50 in the assay on KM12 was 4.07 µM (inactive); in the assay with M14 it was 8.53 µM (inactive); in the assay on Malme-3M, 4.16 µM (inactive); in the assay with NCI-H23, 6.84 µM (inactive); in the assay with NCI/ADR-RES, 21.8 µM (inactive); in the assay with RPMI-8226 it was 6.49 µM (inactive). Besides, the GI50 was 12.6 µM (inactive) in the assay with SF-268; 7.57 µM (inactive) in the assay on SF-295; 2.51 µM (inactive) in the assay on SK-MEL-5; 2.37 µM (inactive) in the assay on SK-OV-3; 10.9 µM (inactive) in the assay on SNB-75; 2.59 µM (inactive) with SR. Moreover, the figures for the GI50 in the assay on T47D and with UACC-257 were 11.5 µM (inactive) and 12.9 µM (inactive), respectively.
Turning to `COc1ccc(-n2c(N)c(C#N)c(C#N)c2-c2ccco2)cc1`, the GI50 in the assay on A549 is > 100 µM (inactive); in the assay with CAKI-1 it was > 100 µM (inactive); in the assay with HCT-116, > 100 µM (inactive); in the assay on HCT-15 it was > 100 µM; with HL-60 it was > 100 µM (inactive); in the assay on IGROV-1, 75.2 µM (inactive). Besides, the GI50 in the assay on KM12, in the assay on M14, in the assay with Malme-3M, in the assay with NCI-H23, in the assay on NCI/ADR-RES and with RPMI-8226 was > 100 µM (inactive) each time. In addition, the GI50 with SF-268 was > 100 µM (inactive); with SF-295, > 100 µM (inactive); in the assay on SK-MEL-5, 78.5 µM (inactive); with SK-OV-3, > 100 µM (inactive); in the assay with SNB-75, 11.9 µM (inactive); with SR it was > 100 µM (inactive). The values for the GI50 in the assay on T47D and in the assay on UACC-257 were 47.9 µM (inactive) and > 100 µM (inactive), respectively.
With `O=[N+]([O-])C(=C/C1CCCCC1)/C(=C\C1CCCCC1)[N+](=O)[O-]`, the GI50 with A549 is 18.6 µM (inactive); in the assay with CAKI-1, 3.85 µM (inactive); in the assay with HCT-116, 6.43 µM (inactive); with HCT-15 it was 1.85 µM; with HL-60 it was 2.09 µM (inactive); with IGROV-1, 5.27 µM (inactive). Also, the GI50 in the assay on KM12 is 11.1 µM (inactive); in the assay on M14, 4.05 µM (inactive); with Malme-3M it was 2.2 µM (inactive); in the assay with NCI-H23, 2.99 µM (inactive); with NCI/ADR-RES it was 2.47 µM (inactive); in the assay on RPMI-8226, 0.316 µM (active). Moreover, the GI50 in the assay with SF-268 was 3.27 µM (inactive); in the assay on SF-295, 16.3 µM (inactive); in the assay with SK-MEL-5 it was 7.83 µM (inactive); in the assay with SK-OV-3 it was 21.7 µM (inactive); in the assay with SNB-75, 14.1 µM (inactive); in the assay with SR it was 1.8 µM (inactive). The figures for the GI50 in the assay on T47D and in the assay on UACC-257 were 9.73 µM (inactive) and 8.63 µM (inactive), respectively.
Take `CCC(C#N)N(Cc1ccc(CN(C(=O)c2ccccc2)C(C#N)CC)cc1)C(=O)c1ccccc1` (stereo not given): the GI50 in the assay on A549 was 20.6 µM (inactive); in the assay on CAKI-1, 24.3 µM (inactive); with HCT-116, 17.6 µM (inactive); in the assay on HCT-15 it was 22.2 µM; in the assay on HL-60, 29.8 µM (inactive); in the assay with IGROV-1, 18.4 µM (inactive). The GI50 in the assay with KM12 was 21.7 µM (inactive); with M14, 36.6 µM (inactive); with Malme-3M, 31.6 µM (inactive); in the assay on NCI-H23 it was 25.7 µM (inactive); in the assay on NCI/ADR-RES, 18.2 µM (inactive); with RPMI-8226, 14.5 µM (inactive). In addition, the GI50 is 29.4 µM (inactive) with SF-268; 17.6 µM (inactive) in the assay with SF-295; 12.8 µM (inactive) with SK-MEL-5; 23.9 µM (inactive) in the assay with SK-OV-3; 22.3 µM (inactive) in the assay on SNB-75; 54.6 µM (inactive) in the assay on SR. Also, the GI50 in the assay with T47D is 9.02 µM (inactive); in the assay on UACC-257, 16.6 µM (inactive).
In the case of `O=c1[nH]c(=O)c2c([nH]1)[nH]c1ccc(Br)cc12`, the GI50 with A549 was > 100 µM (inactive); in the assay on CAKI-1 it was > 100 µM (inactive); with HCT-116 it was > 100 µM (inactive); in the assay with HCT-15, 66.1 µM; in the assay with HL-60, 70.6 µM (inactive); in the assay with IGROV-1, 77.6 µM (inactive). For the same compound, the GI50 is 21.8 µM (inactive) in the assay with KM12; > 100 µM (inactive) in the assay with M14; > 100 µM (inactive) with Malme-3M; > 100 µM (inactive) in the assay on NCI-H23; > 100 µM (inactive) in the assay on NCI/ADR-RES; 79.6 µM (inactive) in the assay with RPMI-8226. The GI50 is 97.1 µM (inactive) in the assay with SF-268; > 100 µM (inactive) in the assay with SF-295; 95.1 µM (inactive) in the assay on SK-MEL-5; 13.6 µM (inactive) with SK-OV-3; 74.5 µM (inactive) in the assay on SNB-75; > 100 µM (inactive) with SR. For the same compound, the GI50 in the assay with T47D and in the assay with UACC-257 was > 100 µM (inactive) throughout.
